One may read the Ki as a measure of affinity in units of concentration, obtained from inhibition or displacement. Read a low Ki as tighter binding.

Consider eleven compounds from PMC6451745, “Development and dosimetry of ^203Pb/^212Pb-labelled PSMA ligands: bringing “the lead” into PSMA-targeted alpha therapy?” (European Journal of Nuclear Medicine and Molecular Imaging, 2019).

On the set-up of series [1]: method as in PMID 10755652, doi:10.1039/C39890000145, doi:10.1021/ja00130a008. As to conditions: cited from earlier work.
Series [2] deals with T1, PSMA (Homo sapiens, UniProt Q04609).
T1 construct: host or cells: C4-2 cells (LNCaP subline)
Briefly: Competitive binding assay on C4-2 cells. As to conditions: reference ^68Ga-labelled PSMA-HBED-CC dimer (PSMA-10), mean ± SD. On the procedure: (§1) In vitro and in vivo experiments were performed using the PSMA-positive C4-2 cell line, a subline of the LNCaP (lymph node carcinoma of the prostate) cell line (CRL-3314; American Type Culture Collection). C4-2 cells were cultivated in RPMI-1640 (PAN Biotech) supplemented with 10% fetal calf serum and stable glutamine (PAN Biotech). Cells were grown at 37 °C and incubated in humidified air equilibrated with 5% CO2.
A MultiScreenHTS-DV filter plate was incubated at room temperature with 100 μl phosphate-buffered saline (PBS) containing 1% bovine serum albumin (BSA) per well for 30 min. After removal of the PBS/BSA solution, 1 × 10^5 C4-2 cells in Opti-MEM were added to each well. All nonlabelled compounds were dissolved in 300 μl Opti-MEM at the following concentrations: 0, 0.5, 1, 2.5, 5, 10, 25, 50, 100, 500, 1,000 and 5,000 nM. Subsequently, 3 μl of the radiolabelled compound was added, and 50 μl of this mixture was taken to obtain a solution containing 0.75 nM of the radiolabelled ligand. After 45 min incubation at 37 °C, the cells were washed twice with PBS, the radioactivity accumulated in the cells was collected, and the remaining radioactivity was measured in a gamma counter. The inhibitory potency was determined using ^68Ga-labelled PSMA-HBED-CC dimer (i.e. PSMA-10) as the reference. The 50% inhibitory concentration was calculated using a nonlinear regression algorithm (GraphPad Prism 5.01 software). The experiments were performed in quadruplicate.

The subject of series [3] is C4-2 tumour-bearing mice. Briefly: Planar scintigraphic imaging in tumour-bearing mice. Format: in vivo. As to conditions: ^203Pb-labelled; for tumour uptake in mice (planar scintigraphy): 1 h after injection, Fig. 3. The protocol:
(§2) The in vivo experiments were carried out in accordance with the laws on animal welfare of the Federal Republic of Germany. For imaging and biodistribution studies, male BALB/c nu/nu mice (20–25 g; Charles River) bearing C4-2 tumour xenografts were used. The mice were inoculated subcutaneously in the right trunk with 5 × 10^6 C4-2 cells in 50% Matrigel in Opti-MEM (1×). For small-animal imaging the mice were anaesthetized with 2% sevoflurane, and then 0.1 nmol (1.0 MBq) of the respective ^203Pb ligand was injected into a tail vein. Serial planar scans were performed using a Gamma Imager-sct (Biospace Lab, Paris, France) with a parallel collimator (35 mm/1.8 mm/0.2 mm) after 10 min, 1 h, 4 h and 24 h. Based on the imaging results, compound CA012 was chosen for biodistribution studies. Experiments were performed in triplicate. For biodistribution, 0.025 nmol (1 MBq) of labelled compound per mouse was administered by injection into a tail vein. After 10 min, 1 h, 4 h and 24 h the mice were killed, the organs were dissected and weighed, and activity was measured using a gamma counter (Packard Cobra Auto-gamma). The organ uptakes were calculated as the percentage of the injected dose per gram of tissue (%ID/g).

The conditions of series [4]: cited from earlier work.
Series [5] concerns the target T1, PSMA. More on the design: method as in PMID 25883127. As to conditions: reference compound; cited from earlier work.
Series [6] is described as follows: Stability of ^203Pb-labelled compounds in human serum. It counts as in vitro ADME. As to conditions: 37 °C, up to 72 h, radio-HPLC. On the procedure:
The conjugates (1 mM in water, 80 μl, 80 nmol) were added to 400 μl sodium acetate buffer (0.4 M in water, pH 5.0), 10 μl ascorbic acid (20% in water) and 140 μl ^203Pb-chloride solution in 0.04 M HCl, with specific activity approximately 102.6 TBq/g (Lantheus Medical Imaging, North Billerica, MA, USA). The mixture was then heated at 95 °C for 5 min. Labelling was controlled by radio-HPLC. The stability of the ^203Pb-labelled compounds was evaluated in 300 μl human serum at 37 °C for up to 72 h. After precipitation of the serum proteins by addition of two parts acetonitrile, the solution was centrifuged for 5 min at 13,000 rpm (twice) and the supernatant was analysed by radio-HPLC (0–100% MeCN over 5 min, monolith column).

In series [7] the test system is C4-2 tumour-bearing mice. Briefly: Biodistribution (organ distribution) in tumour-bearing mice. Format: in vivo. As to conditions: for Organ distribution, Kidneys: 0.025 nmol i.v., n = 3. The protocol:
as §2

The next series deals with C4-2 cells. Description: Determination of specific internalization ratio. As to conditions: for Specific cell surface / Specific lysate (specific internalization): ^203Pb-labelled compound 30 nM, 45 min, 2-PMPA blocking subtracted, mean ± SD n = 3. It counts as cell-based. The protocol:
as §1
For determination of the specific internalization ratio, 24-well plates were incubated for 20 min with 0.1% poly-L-lysine in PBS at room temperature and washed once with PBS. In the next step, 1 ml RPMI containing 1 × 10^5 C4-2 cells was added to each well and incubated overnight. The conditions during the experiment for each compound were: incubation at 37 °C or 4 °C with or without receptor blocking via 2-(phosphonomethyl)pentanedioic acid (2-PMPA; Axxora) at a final concentration of 500 μM. The cells were then incubated with 250 μl of a 30 nM solution of ^203Pb-labelled compound. The plates were incubated either for 45 min in a water bath at 37 °C or on ice at 4 °C. The cells were then washed three times with 1 ml ice-cold PBS and incubated with 0.5 ml glycine (50 mM in HCl, pH 2.8) for 5 min. After an additional washing step with 1 ml ice-cold PBS, the cells were lysed with 0.5 ml 0.3 M NaOH and collected, and the radioactivity was measured with a gamma counter for 1 min. The specific cellular uptake was determined as the percentage of initially added radioactivity bound per 10^6 cells (%IA/10^6 cells) by subtraction of the respective uptake under blocking conditions. All experiments were performed in triplicate.

Details of series [8]: method as in PMID 28408529. As to conditions: projected treatment activity 6–8 MBq; cited from earlier work.
Details of series [9]: method as in PMID 25883127. As to conditions: previously determined; cited from earlier work.
On the set-up of series [10]: method as in PMID 28891033. As to conditions: projected treatment activity 1 GBq; cited from earlier work.

Like-named read-outs stand apart in the source and are kept apart here.

T1 sequence (Q04609 whole entry): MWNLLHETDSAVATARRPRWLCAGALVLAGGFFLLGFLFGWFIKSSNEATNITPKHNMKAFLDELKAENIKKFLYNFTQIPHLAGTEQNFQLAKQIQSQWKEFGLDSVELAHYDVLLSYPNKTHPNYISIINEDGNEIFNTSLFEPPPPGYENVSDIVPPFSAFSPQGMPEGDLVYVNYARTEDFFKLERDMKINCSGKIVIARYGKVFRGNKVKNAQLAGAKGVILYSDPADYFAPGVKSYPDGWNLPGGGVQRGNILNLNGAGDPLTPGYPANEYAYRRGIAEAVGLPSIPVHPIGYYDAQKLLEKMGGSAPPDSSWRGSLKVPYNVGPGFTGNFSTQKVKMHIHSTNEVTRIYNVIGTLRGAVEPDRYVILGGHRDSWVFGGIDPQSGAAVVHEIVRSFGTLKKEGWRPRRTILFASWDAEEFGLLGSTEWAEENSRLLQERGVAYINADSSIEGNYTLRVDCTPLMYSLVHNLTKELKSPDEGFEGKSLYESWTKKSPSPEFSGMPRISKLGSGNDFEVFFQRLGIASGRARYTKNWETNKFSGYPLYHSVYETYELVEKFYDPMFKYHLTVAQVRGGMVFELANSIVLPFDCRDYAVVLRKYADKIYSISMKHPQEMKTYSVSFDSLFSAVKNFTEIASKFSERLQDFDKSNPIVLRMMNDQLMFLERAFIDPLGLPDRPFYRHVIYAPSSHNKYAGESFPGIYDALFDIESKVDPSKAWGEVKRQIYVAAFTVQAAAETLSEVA

For `O=C(O)CN1CCN(CC(=O)O)CCN(CC(=O)O)CCN(CC(=O)O)CC1` [DOTA, 1,4,7,10-tetraazacyclododecane-1,4,7,10-tetraacetic acid], the “pH at which stable complexes with lead(II) are formed” value in series [1] is reported as greater than 3.5.
On to `NC(=O)CN1CCN(CC(N)=O)CCN(CC(N)=O)C(Cc2ccc(NC(=S)NC(Cc3ccc4ccccc4c3)C(=O)NCCCC[C@H](NC(=O)N[C@@H](CCC(=O)O)C(=O)O)C(=O)O)cc2)CN(CC(N)=O)CC1` (some centres unmarked) [CA008], for which the Ki on PSMA [2] stood at 0.0288 ± 0.0034 µM. Also, in the series with C4-2 tumour-bearing mice [3], the “tumour uptake in mice (planar scintigraphy)” value is recorded as “low tumour uptake”.
`O=C(O)CC[C@H](NC(=O)N[C@@H](CCCCNC(=O)C(Cc1ccc2ccccc2c1)NC(=O)C1CCC(CNC(=O)CN2CCN(CC(=O)O)CCN(CC(=O)O)CCN(CC(=O)O)CC2)CC1)C(=O)O)C(=O)O.[68Ga+3]` (some centres unmarked) [^68Ga-PSMA-617]: the tumour uptake in series [4] (mice) is 8.5 ± 4.1 %ID/g.
Take `O=C(O)CC[C@H](NC(=O)N[C@@H](CCCCNC(=O)[C@H](Cc1ccc2ccccc2c1)NC(=O)[C@H]1CC[C@H](CNC(=O)CN2CCN(CC(=O)O)CCN(CC(=O)O)CCN(CC(=O)O)CC2)CC1)C(=O)O)C(=O)O` [PSMA-617]: the “affinity (in words)” value at PSMA [5] is “single-digit affinity”. Moreover, the kidney accumulation in series [4] (mice, after 24 h) is listed as 1%; in [4] (mouse, in vivo, 1 h), 113.3 ± 24.4 %ID/g.
`NC(=O)CN1CCN(CC(N)=O)CCN(CC(N)=O)CCN(CC(N)=O)CC1` [TCMC, 1,4,7,10-tetra-(2-carbamoyl-methyl)-cyclododecane]: the “pH at which stable complexes with lead(II) are formed” value in series [1] is greater than 2.
On PSMA [2], `NC(=O)CN1CCN(CC(N)=O)CCN(CC(=O)NCC2CCC(C(=O)NC(Cc3ccc4ccccc4c3)C(=O)NCCCC[C@H](NC(=O)N[C@@H](CCC(=O)O)C(=O)O)C(=O)O)CC2)CCN(CC(N)=O)CC1` (some centres unmarked) [CA012] registered an inhibitory constant (Ki) of 0.0243 ± 0.0037 µM. Also, the “stability in human serum” value in series [6] is reported as “high stability”. Also, the “Organ distribution, Kidneys” value in the series on C4-2 tumour-bearing mice [7] (C4-2 tumour-bearing mice, 1 h) turned out to be 5.1 ± 2.5 % ID/g. In addition, the “Organ distribution, Kidneys” value in the series with C4-2 tumour-bearing mice [7] (C4-2 tumour-bearing mice, 24 h) is on record as 0.9 ± 0.1 % ID/g. Also, the “specific uptake in tumours versus other organs” value with C4-2 tumour-bearing mice [7] (in vivo, C4-2 tumour-bearing mice) is listed as “higher specific uptake in tumours than in other organs”. The kidney accumulation in the series with C4-2 tumour-bearing mice [7] (mice, after 24 h) stood at 2%. In the series with C4-2 tumour-bearing mice [3] (Fig. 4), the “kidney clearance (comparison)” value was “faster kidney clearance than CA009”. In the series with C4-2 cells, the specific ligand-induced internalization is 15.6 ± 2.1 %IA/10^6 cells, the Specific cell surface is reported as 132.1 ± 4.3 %IA/10^6 cells and the “Specific lysate (specific internalization)” value is on record as 15.6 ± 2.1 %IA/10^6 cells.
`O=C([O-])CC[C@H](NC(=O)N[C@@H](CCCCNC(=O)[C@H](Cc1ccc2ccccc2c1)NC(=O)C1CCC(CNC(=O)CN2CCN(CC(=O)[O-])CCN(CC(=O)[O-])CCN(CC(=O)[O-])CC2)CC1)C(=O)[O-])C(=O)[O-].[225Ac].[H+].[H+].[H+]` (some centres unmarked) [^225Ac-PSMA-617]: in series [8], the “Tissue equivalent dose, Kidneys” value is 4.2 SvRBE5; the “Tissue equivalent dose, Red marrow” value is 0.3 SvRBE5; the “Tissue equivalent dose, Salivary glands” value is reported as 13.8 SvRBE5.
Take `O=C([O-])CN1CCN(CC(=O)[O-])CCN(CC(=O)NCC2CCC(C(=O)N[C@@H](Cc3ccc4ccccc4c3)C(=O)NCCCC[C@H](NC(=O)N[C@@H](CCC(=O)O)C(=O)O)C(=O)O)CC2)CCN(CC(=O)[O-])CC1.[177Lu+3]` (some centres unmarked) [^177Lu-PSMA-617]: in [9], the specific internalization is 18 %ID per 10^6cells.
Take `NC(=O)CN1CCN(CC(N)=O)CCN(CC(N)=O)C(Cc2ccc(NC(=S)NCC3CCC(C(=O)NC(Cc4ccc5ccccc5c4)C(=O)NCCCC[C@H](NC(=O)N[C@@H](CCC(=O)O)C(=O)O)C(=O)O)CC3)cc2)CN(CC(N)=O)CC1` (some centres unmarked) [CA009]: the Ki at PSMA [2] was 0.0153 ± 0.0031 µM. Further, in the series on C4-2 cells, the specific ligand-induced internalization is recorded as 27.4 ± 2.4 %IA/10^6 cells, the Specific cell surface worked out at 106.5 ± 2.8 %IA/10^6 cells and the “Specific lysate (specific internalization)” value is 27.4 ± 2.4 %IA/10^6 cells.
With `NC(=O)CN1CCN(CC(N)=O)CCN(CC(=O)NC(Cc2ccc3ccccc3c2)C(=O)NCCCC[C@H](NC(=O)N[C@@H](CCC(=O)O)C(=O)O)C(=O)O)CCN(CC(N)=O)CC1` (some centres unmarked) [CA011], on PSMA [2], the Ki was found to be 0.0281 ± 0.0029 µM. The “stability in human serum” value in series [6] was “high stability”. Besides, the “tumour uptake in mice (planar scintigraphy)” value in the series with C4-2 tumour-bearing mice [3] was “low tumour uptake”.
Turning to `O=C(O)CC[C@H](NC(=O)N[C@@H](CCCCNC(=O)C(Cc1ccc2ccccc2c1)NC(=O)C1CCC(CNC(=O)CN2CCN(CC(=O)O)CCN(CC(=O)O)CCN(CC(=O)O)CC2)CC1)C(=O)O)C(=O)O.[213Bi+3]` (some centres unmarked) [^213Bi-PSMA-617], in series [10], the “Tissue equivalent dose, Kidneys” value is 8.1 SvRBE5; the “Tissue equivalent dose, Red marrow” value is 0.5 SvRBE5; the “Tissue equivalent dose, Salivary glands” value is 8.1 SvRBE5.
